The source of these data is patent US10980238B2, “Alkali metal salt for use in treatment of varroa destructor mite infestation of honey bees” (Universität Hohenheim, priority 2015, dated 2021).

One data set relates to Varroa destructor. The conditions noted are these: for effect on mites during the 7-day treatment period: 4 mM, data not shown; for Number of dead mites, Day 1 / Number of dead mites, Day 2 / Number of dead mites, Day 3 / Number of dead mites, Day 4 / Number of dead mites, Day 5 / Number of dead mites, Day 6 / Number of dead mites, Day 7: Li-salt 25 mM in sucrose syrup for 7 days; for Number of dead mites, Day 1 / Number of dead mites, Day 2 / Number of dead mites, Day 3 / Number of dead mites, Day 4 / Number of dead mites, Day 5 / Number of dead mites, Day 6 / Number of dead mites, Day 7 / Number of dead mites, Sum: 25 mites per cage, mean of three replicates; for Number of dead mites, Sum: Li-salt 25 mM in sucrose syrup, days 1-7. An excerpt: (§1) The bees were fed with Li-salt/sucrose solutions for 7 days. Survival rate of bees and mites were monitored daily and dead bees or mites were removed.

The next data set has as its system bees. The conditions noted are these: for impact on bee viability: 4 mM, 7-day treatment period, data not shown; for Number of dead bees, Day 1 / Number of dead bees, Day 2 / Number of dead bees, Day 3 / Number of dead bees, Day 4 / Number of dead bees, Day 5 / Number of dead bees, Day 6 / Number of dead bees, Day 7: Li-salt 25 mM in sucrose syrup for 7 days; for Number of dead bees, Day 1 / Number of dead bees, Day 2 / Number of dead bees, Day 3 / Number of dead bees, Day 4 / Number of dead bees, Day 5 / Number of dead bees, Day 6 / Number of dead bees, Day 7 / Number of dead bees, Sum: 50 bees per cage, mean of three replicates; for Number of dead bees, Sum: Li-salt 25 mM in sucrose syrup, days 1-7.
Text: as §1

In the case of `O=C([O-])[O-].[Li+].[Li+]` [Li-carbonate, lithium carbonate], in the data set with Varroa destructor, the “effect on mites during the 7-day treatment period” value (“effect” for short) is “killed all mites”; the “Number of dead mites, Day 1” value was 0.3; the “Number of dead mites, Day 2” value is given as 3.0; the “Number of dead mites, Day 3” value turned out to be 20.0. In addition, in the data set with Varroa destructor, the “Number of dead mites, Day 4” value is on record as 1.7; the “Number of dead mites, Day 5” value came out at 0.0; the “Number of dead mites, Day 6” value is given as 0.0; the “Number of dead mites, Day 7” value came to 0.0. Also, the “Number of dead mites, Sum” value in the data set on Varroa destructor is reported as 25.0. In addition, in the data set on bees, the “impact on bee viability” value was “without a significant negative impact on bee viability”; the “Number of dead bees, Day 1” value came to 0.7; the “Number of dead bees, Day 2” value is recorded as 0.0; the “Number of dead bees, Day 3” value is 0.0. In addition, in the data set with bees, the “Number of dead bees, Day 4” value turned out to be 0.0; the “Number of dead bees, Day 5” value is 0.0; the “Number of dead bees, Day 6” value came out at 0.3; the “Number of dead bees, Day 7” value is 0.7. Also, in the data set with bees, the “Number of dead bees, Sum” value worked out at 1.7.

Consider `O=C([O-])CC(O)(CC(=O)[O-])C(=O)[O-].[Li+].[Li+].[Li+]` [Li-citrate, lithium citrate], for which, in the data set with Varroa destructor, the “effect” value is reported as “killed all mites”; the “Number of dead mites, Day 1” value amounted to 0.3; the “Number of dead mites, Day 2” value stood at 10.0; the “Number of dead mites, Day 3” value was 14.7. In the data set on Varroa destructor, the “Number of dead mites, Day 4” value amounted to 0.0; the “Number of dead mites, Day 5” value is listed as 0.0; the “Number of dead mites, Day 6” value came out at 0.0; the “Number of dead mites, Day 7” value is on record as 0.0. Besides, the “Number of dead mites, Sum” value with Varroa destructor came out at 25.0. In addition, in the data set with bees, the “impact on bee viability” value was “without a significant negative impact on bee viability”; the “Number of dead bees, Day 1” value amounted to 0.0; the “Number of dead bees, Day 2” value worked out at 0.0; the “Number of dead bees, Day 3” value is given as 0.3. In addition, in the data set on bees, the “Number of dead bees, Day 4” value is 0.0; the “Number of dead bees, Day 5” value is on record as 0.7; the “Number of dead bees, Day 6” value amounted to 1.7; the “Number of dead bees, Day 7” value is reported as 0.3. Further, the “Number of dead bees, Sum” value in the data set on bees worked out at 3.0.

For the compound `CC(O)C(=O)[O-].[Li+]` (stereo not drawn) [Li-lactate, lithium lactate], in the data set with Varroa destructor, the “effect” value is recorded as “killed all mites”; the “Number of dead mites, Day 1” value is reported as 0.7; the “Number of dead mites, Day 2” value turned out to be 14.0; the “Number of dead mites, Day 3” value is on record as 6.3. For the same compound, in the data set with Varroa destructor, the “Number of dead mites, Day 4” value was 4.0; the “Number of dead mites, Day 5” value stood at 0.0; the “Number of dead mites, Day 6” value came out at 0.0; the “Number of dead mites, Day 7” value was found to be 0.0. In addition, the “Number of dead mites, Sum” value in the data set with Varroa destructor stood at 25.0. Also, in the data set with bees, the “impact on bee viability” value is “without a significant negative impact on bee viability”; the “Number of dead bees, Day 1” value is 0.3; the “Number of dead bees, Day 2” value was 0.0; the “Number of dead bees, Day 3” value was determined as 0.0. In the data set on bees, the “Number of dead bees, Day 4” value is 0.7; the “Number of dead bees, Day 5” value worked out at 2.0; the “Number of dead bees, Day 6” value came to 0.3; the “Number of dead bees, Day 7” value is given as 1.7. The “Number of dead bees, Sum” value with bees is given as 5.0.
